We go through 19 compounds from patent US9896443B2, “Perforin inhibiting benzenesulfonamide compounds, preparation and uses thereof” (Peter MacCallum Cancer Institute, priority 2012, dated 2018).

The subject of data set [1] is NK and perforin-mediated bone marrow rejection. Briefly: In vivo inhibition of perforin-mediated bone marrow rejection. Further details: species or system C57Bl/6 mice. The conditions noted are these: 120 mg/kg intra-peritoneal once daily day -2 to day +1; Balb/c bone marrow transplant; blood day +1. The procedure:
In Vivo Inhibition of Perforin-Mediated Bone Marrow Rejection.
On day 0 mice received 12×106 Balb/c (CD45.2+) CFSE labelled bone marrow as well as 12×106 B6.PTP (CD45.1+) bone marrow. On day +1 blood was collected for in vivo cytotoxicity assays looking at the ratio of recipient (CD45.1+) versus donor cells (CFSE+) (FIG. 1). Results are illustrated in FIG. 2 as two experiments combined with n=6, 10, 10, 4 and 3/group. […] Statistically significant differences were calculated using two-tailed t tests between groups.

Data set [2] deals with KHYG-1 NK cell-mediated lysis of K562 cells. Briefly: Inhibition of KHYG-1 NK cell-mediated lysis of K562 cells (51Cr release). The conditions noted are these: K562 target cells, Effector:Target 2:1, 4 hours at 37° C. Format: cell-based. The method in brief: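 KHYG-1 effector cells pretreated with compound (up to 20 µM) for 20 min at RT. 51Cr-labelled K562 targets were then added at effector:target 2:1 and incubated 4 h at 37 °C. 51Cr release was gamma-counted and expressed as % specific cytotoxicity.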

The target in data set [3] is recombinant perforin (UniProt P10820). Type of data set: cell-based. The method in brief: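 Jurkat T lymphoma cells labelled with 51Cr for 1 h, washed, then exposed to recombinant perforin with compound in RPMI plus 0.1% BSA. Lysis measured as 51Cr release. IC50 from a concentration range run in triplicate.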
recombinant perforin, sequence (P10820 whole entry): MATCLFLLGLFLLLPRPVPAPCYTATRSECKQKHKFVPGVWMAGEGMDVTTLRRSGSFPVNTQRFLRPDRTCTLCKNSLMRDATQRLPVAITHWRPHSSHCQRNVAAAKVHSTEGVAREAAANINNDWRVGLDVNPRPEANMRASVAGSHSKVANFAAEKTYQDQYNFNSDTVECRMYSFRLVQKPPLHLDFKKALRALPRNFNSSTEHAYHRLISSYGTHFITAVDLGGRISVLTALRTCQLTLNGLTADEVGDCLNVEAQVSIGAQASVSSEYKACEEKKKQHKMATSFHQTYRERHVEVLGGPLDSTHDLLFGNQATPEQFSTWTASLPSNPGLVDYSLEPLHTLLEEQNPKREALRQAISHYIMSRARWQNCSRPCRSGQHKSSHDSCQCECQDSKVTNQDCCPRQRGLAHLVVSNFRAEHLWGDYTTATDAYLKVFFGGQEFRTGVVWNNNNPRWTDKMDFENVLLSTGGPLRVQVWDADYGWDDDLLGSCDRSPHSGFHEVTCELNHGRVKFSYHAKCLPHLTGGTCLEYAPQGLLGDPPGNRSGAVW
Setting [4] is: lysis of Jurkat T lymphoma cells by recombinant perforin, 0.1% BSA, 30 min pre-incubation, 4 hours at 37° C.; read-out: Jurkat IC50.
Where [5] appears, read: read-out: Jurkat IC50; lysis of Jurkat T lymphoma cells by recombinant perforin, 0.1% BSA, 30 min pre-incubation, 4 hours at 37° C.

Where a name gives a salt, the structure may show the parent alone. Read-outs that look alike come from different tables or passages of the source.

Consider `CN1Cc2cc(-c3ccc(-c4cncc(NS(=O)(=O)c5ccc(F)cc5F)c4)s3)ccc2C1=O` [Compound 1.Na, 2,4-Difluoro-N-(5-(5-(2-methyl-1-oxoisoindolin-5-yl)thiophen-2-yl)pyridin-3-yl)benzenesulfonamide, sodium salt], for which, in data set [1], the “inhibition of NK and perforin-mediated bone marrow rejection” value was “able to inhibit NK and perforin-mediated bone marrow rejection”. In data set [2] (sodium salt), the “Inhibition of KHYG-1 at 20 μM (%)” value came out at 48%.

`CN1Cc2cc(-c3ccc(-c4cncc(NS(=O)(=O)c5ccc(Br)cc5)c4)s3)ccc2C1=O` [Compound 17, 4-Bromo-N-(5-(5-(2-methyl-1-oxoisoindolin-5-yl)thiophen-2-yl)pyridin-3-yl)benzenesulfonamide] displayed a melting point of 276 to 279 °C. The IC50 in data set [3] (setting [4]) was found to be 8.77 µM. Besides, in data set [2] (4 h), the inhibition at 20 µM is 6%.

On to `COc1cccc(S(=O)(=O)Nc2cncc(-c3ccc(-c4ccc5c(c4)CN(C)C5=O)s3)c2)c1` [Compound 19, 3-Methoxy-N-(5-(5-(2-methyl-1-oxoisoindolin-5-yl)thiophen-2-yl)pyridin-3-yl)benzenesulfonamide], for which the melting point was in the range of 278 to 280 °C. In addition, the IC50 in data set [3] (setting [4]) is 2.56 µM. Moreover, at 20 µM the inhibition in data set [2] (4 h) was 17%.

With `COc1ccc(S(=O)(=O)Nc2cncc(-c3ccc(-c4ccc5c(c4)CN(C)C5=O)s3)c2)cc1` [Compound 20, 4-Methoxy-N-(5-(5-(2-methyl-1-oxoisoindolin-5-yl)thiophen-2-yl)pyridin-3-yl)benzenesulfonamide], the melting point was 254 to 258 °C. Further, the IC50 in data set [3] (setting [4]) came to 6.27 µM. Moreover, 20 µM produced 24% inhibition in data set [2] (4 h).

Consider `CN1Cc2cc(-c3ccc(-c4cncc(NS(=O)(=O)c5cccc(OC(F)(F)F)c5)c4)s3)ccc2C1=O` [Compound 23, N-(5-(5-(2-Methyl-1-oxoisoindolin-5-yl)thiophen-2-yl)pyridin-3-yl)-3-(trifluoromethoxy)benzenesulfonamide], for which the melting point was 230 to 232 °C. Besides, the IC50 in data set [3] (setting [4]) was 1.42 µM. Besides, in data set [2] (4 h), the inhibition at 20 µM stood at 38%.

`CN1Cc2cc(-c3ccc(-c4cncc(NS(=O)(=O)c5ccccn5)c4)s3)ccc2C1=O` [Compound 31, N-(5-(5-(2-Methyl-1-oxoisoindolin-5-yl)thiophen-2-yl)pyridin-3-yl)pyridine-2-sulfonamide]: the melting point lay within 272 to 275 °C. Besides, the 50% inhibitory concentration (IC50) in data set [3] (setting [4]) came out at 0.74 µM. The same compound came in with an inhibition at 20 µM in data set [2] (4 h) of 19%.

In turn, `CN1Cc2cc(-c3ccc(-c4cncc(NS(=O)(=O)c5cccs5)c4)s3)ccc2C1=O` [Compound 34, N-(5-(5-(2-Methyl-1-oxoisoindolin-5-yl)thiophen-2-yl)pyridin-3-yl)thiophene-2-sulfonamide] showed a melting point of 300 to 304 °C. In addition, in data set [3] (setting [4]), the concentration for half-maximal inhibition (IC50) came to 1.07 µM. In data set [2] (4 h), this compound registered an inhibition at 20 µM of 45%.

As for `COc1ncc(-c2ccc(-c3ccc4c(c3)CN(C)C4=O)s2)cc1NS(=O)(=O)c1ccc(F)cc1F` [Compound 37, 2,4-Difluoro-N-(2-methoxy-5-(5-(2-methyl-1-oxoisoindolin-5-yl)thiophen-2-yl)pyridin-3-yl)benzenesulphonamide], the melting point is 224 to 227 °C. Moreover, the IC50 in data set [3] (setting [4]) was 3.56 µM. For the same compound, in data set [2] (4 h), 20 µM produced 36% inhibition.

In the case of `CN1Cc2cc(-c3ccc(-c4ccnc(NS(=O)(=O)c5ccc(F)cc5F)c4)s3)ccc2C1=O` [Compound 41, 2,4-Difluoro-N-(4-(5-(2-methyl-1-oxoisoindolin-5-yl)thiophen-2-yl)pyridin-2-yl)benzenesulfonamide], the melting point lay in the range of 235 to 239 °C. The IC50 in data set [3] (setting [4]) was determined as 4.7 µM. Further, the inhibition at 20 µM in data set [2] (4 h) worked out at 14%.

Compound `CN1Cc2cc(-c3ccc(-c4cccc(NS(=O)(=O)c5ccc(F)cc5F)c4)s3)ccc2C1=O` [Compound 43, 2,4-Difluoro-N-(3-(5-(2-methyl-1-oxoisoindolin-5-yl)thiophen-2-yl)phenyl)benzene sulphonamide] gave a melting point of 260 to 262 °C. Also, the IC50 in data set [3] (setting [4]) was 5.74 µM. Besides, testing at 20 µM in data set [2] (4 h) gave an inhibition of 18%.

On to `CN1Cc2cc(-c3ccc(-c4cncc(S(=O)(=O)Nc5ccc(F)cc5F)c4)s3)ccc2C1=O` [Compound 44, N-(2,4-Difluorophenyl)-5-(5-(2-methyl-1-oxoisoindolin-5-yl)thiophen-2-yl)pyridine-3-sulphonamide], for which the melting point was 221 to 224 °C. For the same compound, in data set [3] (setting [4]), the IC50 amounted to 2.24 µM. For the same compound, the inhibition at 20 µM in data set [2] (4 h) turned out to be 57%.

For `CN1Cc2cc(-c3ccc(-c4cnc(N)c(S(=O)(=O)Nc5ccc(F)cc5F)c4)s3)ccc2C1=O` [Compound 45, 2-Amino-N-(2,4-difluorophenyl)-5-(5-(2-methyl-1-oxoisoindolin-5-yl)thiophen-2-yl)pyridine-3-sulphonamide], the melting point fell in the range of 278 to 279 °C. Also, the IC50 in data set [3] (setting [5]) turned out to be 4.63 µM. For the same compound, at 20 µM the inhibition in data set [2] (4 h) was 14%.

`CN1Cc2cc(-c3ccc(-c4cncc(N(C)S(=O)(=O)c5ccc(F)cc5F)c4)s3)ccc2C1=O` [Compound 46, 2,4-Difluoro-N-methyl-N-(5-(5-(2-methyl-1-oxoisoindolin-5-yl)thiophen-2-yl)pyridin-3-yl)benzenesulphonamide] registered a melting point of 200 to 202 °C. Further, the IC50 in data set [3] (setting [4]) is 9.13 µM. This compound also showed an inhibition at 20 µM in data set [2] (4 h) of 28%.

The compound `CN1Cc2ccc(-c3ccc(-c4cncc(NS(=O)(=O)c5ccc(F)cc5F)c4)s3)cc2C1=O` [Compound 50, 2,4-Difluoro-N-(5-(5-(2-methyl-3-oxoisoindolin-5-yl)thiophen-2-yl)pyridin-3-yl)benzenesulfonamide] showed a melting point of 292 to 295 °C. Also, the IC50 in data set [3] (setting [5]) was determined as 10.4 µM. Besides, the inhibition at 20 µM in data set [2] (4 h) turned out to be 27%.

For `O=C1c2ccc(-c3ccc(-c4cncc(NS(=O)(=O)c5ccc(F)cc5F)c4)s3)cc2CN1CCO` [Compound 56, 2,4-Difluoro-N-(5-(5-(2-(2-hydroxyethyl)-1-oxoisoindolin-5-yl)thiophen-2-yl)pyridin-3-yl)benzenesulfonamide], the melting point fell in the range of 211 to 216 °C. In data set [3] (setting [5]), the half-maximal inhibitory concentration (IC50) amounted to 1.33 µM. Moreover, testing at 20 µM in data set [2] (4 h) gave an inhibition of 32%.

`CCCCn1cc(C(C)=O)c2cc(-c3ccc(-c4cncc(NS(=O)(=O)c5ccc(F)cc5F)c4)s3)ccc21` [Compound 58, N-(5-(5-(3-Acetyl-1-butyl-1H-indol-5-yl)thiophen-2-yl)pyridin-3-yl)-2,4-difluorobenzenesulfonamide] returned a melting point of 188 to 191 °C. Also, the IC50 in data set [3] (setting [4]) is 5.5 µM. The inhibition at 20 µM in data set [2] was found to be 64%.

`CC(=O)c1cn(C)c2ccc(-c3ccc(-c4cncc(NS(=O)(=O)c5ccc(F)cc5F)c4)s3)cc12` [Compound 59, N-(5-(5-(3-Acetyl-1-methyl-1H-indol-5-yl)thiophen-2-yl)-pyridin-3-yl)-2,4-difluorobenzenesulfonamide] returned a melting point of 241 to 244 °C. Besides, in data set [3] (setting [5]), the IC50 turned out to be 11.2 µM. For the same compound, in data set [2] (4 h), testing at 20 µM gave an inhibition of 72%.

The compound `Cc1ccc(NS(=O)(=O)c2ccccn2)cc1-c1ccc(-c2ccc3c(c2)CN(C)C3=O)s1` [Compound 60, N-(4-Methyl-3-(5-(2-methyl-1-oxoisoindolin-5-yl)thiophen-2-yl)phenyl)pyridine-2-sulfonamide] had a melting point of 274 to 277 °C. Further, the IC50 in data set [3] (setting [4]) worked out at 15.4 µM. Also, in data set [2] (4 h), at 20 µM the inhibition was 17%.

In turn, `CN1Cc2cc(-c3ccc(-c4ccc(OC(F)(F)F)c(NS(=O)(=O)c5ccccn5)c4)s3)ccc2C1=O` [Compound 63, N-(5-(5-(2-Methyl-1-oxoisoindolin-5-yl)thiophen-2-yl)-2-(trifluoromethoxy)phenyl)pyridine-2-sulfonamide] yielded a melting point of 200 to 201 °C. Besides, in data set [3] (setting [4]), the concentration for half-maximal inhibition (IC50) was above 20 µM. The “Inhibition of KHYG-1 at 20 μM (%)” value in data set [2] is reported as 56.14 ± 9%.

The melting point is the temperature of the solid-liquid transition. The term IC50 denotes the midpoint of a concentration-inhibition curve. The term inhibition denotes the share of the control response that was lost under treatment. A high value points to strong suppression.
